Test results reported in article PMC9040839 (mBio, 2022).
Values joined by “and” are separate entries in the source; they are usually repeats but may differ in a detail not shown here. Identical values can stand only once. “Also recorded” adds a separate entry of the source. Like-named read-outs stand apart in the source and are kept apart here.

Experiments:
P. aeruginosa PAO1 [1] = test: Growth experiments with Biolog compound array PM2A; format: cell-based, Pseudomonas aeruginosa; details: M9 minimal medium, 96-well plate, 48 h, 37°C
Description: PAO1 was grown overnight in M9 minimal medium containing 10 mM glucose. Cultures were washed twice and then diluted to an OD600 of 0.02 in either M9 or M8 medium (M9 minimal medium without NH4Cl) containing 10 mM glucose and medium supplemented with each of the compounds present in the Biolog compound array PM2A (https://www.biolog.com/wp-content/uploads/2020/04/00A-042-Rev-C-Phenotype-MicroArrays-1-10-Plate-Maps.pdf) as sole carbon source. Then, 200 μL of these cultures were transferred into microwell plates, and growth at 37°C was followed on a Bioscreen microbiological growth analyzer (Oy Growth Curves Ab Ltd., Helsinki, Finland).

PctD(PA4633)-LBD = PctD(PA4633)-LBD (Pseudomonas aeruginosa, UniProt Q9HVF8); test: biochemical; details: for KD / ΔH: ITC, 25°C, pH 7.5
Sequence of PctD(PA4633)-LBD (Q9HVF8 entry or part of it): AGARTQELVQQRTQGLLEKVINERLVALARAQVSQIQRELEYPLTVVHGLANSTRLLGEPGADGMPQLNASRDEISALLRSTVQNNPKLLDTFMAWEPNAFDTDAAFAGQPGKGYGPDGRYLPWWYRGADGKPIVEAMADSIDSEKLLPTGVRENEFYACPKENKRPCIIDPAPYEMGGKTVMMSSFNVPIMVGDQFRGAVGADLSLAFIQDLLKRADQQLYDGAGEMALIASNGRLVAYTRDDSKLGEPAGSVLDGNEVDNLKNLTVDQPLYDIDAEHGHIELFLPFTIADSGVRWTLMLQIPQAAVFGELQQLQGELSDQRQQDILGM
Description: Measurements were made using a VP-ITC microcalorimeter (MicroCal, Inc., Northampton, MA) at 25°C. […] The mean enthalpies from the injection of ligands into the buffer were subtracted from raw data prior to data fitting using the “one binding site model” of the MicroCal version of the ORIGIN software.

P. atrosepticum SCRI1043 = test: Capillary chemotaxis assay; format: cell-based, Pectobacterium atrosepticum; details: 1 mM chemoeffector
Description: (§1) Overnight cultures in M9 minimal medium supplemented with 6 mg/L Fe-citrate, trace elements ([89]), and 15 mM glucose were used to inoculate fresh medium to an OD660 of 0.05. Cells were cultured at 30°C (Pectobacterium atrosepticum, Pantoea agglomerans, Serratia plymuthica, Pseudomonas stutzeri, Agrobacterium tumefaciens, Dickeya solani, Pseudomonas savastanoi pv. savastanoi) or 37°C (P. aeruginosa, E. coli, Salmonella enterica serovar Typhimurium) to an OD660 of 0.4 to 0.5. Subsequently, cells were washed twice by centrifugation (1,667 × g for 5 min at room temperature) and resuspension in chemotaxis buffer (50 mM KH2PO4/K2HPO4, […], 0.05% [vol/vol] glycerol, pH 7.0) and then resuspended in the same buffer at an OD660 of 0.1. Aliquots (230 μL) of the resulting cell suspension were placed into the wells of 96-well microtiter plates. Then, 1-μL capillaries (Microcaps, Drummond Scientific) were heat-sealed at one end and filled with buffer (control) or chemoeffector solution prepared in chemotaxis buffer. The capillaries were rinsed with sterile water and immersed into the bacterial suspensions at their open ends. After 30 min, capillaries were removed from the wells, rinsed with sterile water, and emptied into 1 mL of chemotaxis buffer. Serial dilutions were plated onto M9 minimal medium plates supplemented with 20 mM glucose, incubated at 30°C or 37°C prior to colony counting. Data were corrected with the number of cells that swam into buffer containing capillaries. Data are the means and standard deviations of three biological replicates conducted in triplicate.

P. aeruginosa PAO1 [2] = format: cell-based, Pseudomonas aeruginosa; details: capillary assay; for concentration of maximal chemotaxis response / response threshold of chemotaxis: 30 min; for maximal accumulation: at 10 μM
Description: as §1

PacA(ECA_RS10935)-LBD = PacA(ECA_RS10935)-LBD (Pectobacterium atrosepticum, UniProt Q6D515); test: Isothermal titration calorimetry of PacA-LBD with ligands; format: binding, P. atrosepticum SCRI1043; details: ITC, 25°C, pH 7.0
Sequence of PacA(ECA_RS10935)-LBD (Q6D515 entry or part of it): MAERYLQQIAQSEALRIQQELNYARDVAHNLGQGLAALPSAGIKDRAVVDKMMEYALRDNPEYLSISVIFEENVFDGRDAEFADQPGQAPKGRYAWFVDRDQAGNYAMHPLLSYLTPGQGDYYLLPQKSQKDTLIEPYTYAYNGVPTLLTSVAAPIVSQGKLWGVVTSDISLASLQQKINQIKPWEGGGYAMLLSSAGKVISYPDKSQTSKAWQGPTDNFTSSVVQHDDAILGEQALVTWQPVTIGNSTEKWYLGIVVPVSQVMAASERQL
Description: Measurements were made using a VP-ITC microcalorimeter (MicroCal, Inc., Northampton, MA) at 25°C. PA4633-LBD was dialyzed into 5 mM Tris, 5 mM PIPES [piperazine-N,N′-bis(2-ethanesulfonic acid)], 5 mM MES (morpholineethanesulfonic acid), 150 mM NaCl, 10% (vol/vol) glycerol, pH 7.5, whereas ECA_RS10935-LBD was dialyzed into 40 mM KH2PO4/K2HPO4, 10% (vol/vol) glycerol, pH 7.0. Proteins at 15 to 22 μM were placed into the sample cell and titrated with 9.6-μL aliquots of 0.5 to 10 mM ligand solutions made up in dialysis buffer. […] The mean enthalpies from the injection of ligands into the buffer were subtracted from raw data prior to data fitting using the “one binding site model” of the MicroCal version of the ORIGIN software.

PctD-Tar hybrid = PctD-Tar hybrid (Pseudomonas aeruginosa, UniProt Q9HVF8); test: cell-based
Sequence of PctD-Tar hybrid (Q9HVF8 entry or part of it): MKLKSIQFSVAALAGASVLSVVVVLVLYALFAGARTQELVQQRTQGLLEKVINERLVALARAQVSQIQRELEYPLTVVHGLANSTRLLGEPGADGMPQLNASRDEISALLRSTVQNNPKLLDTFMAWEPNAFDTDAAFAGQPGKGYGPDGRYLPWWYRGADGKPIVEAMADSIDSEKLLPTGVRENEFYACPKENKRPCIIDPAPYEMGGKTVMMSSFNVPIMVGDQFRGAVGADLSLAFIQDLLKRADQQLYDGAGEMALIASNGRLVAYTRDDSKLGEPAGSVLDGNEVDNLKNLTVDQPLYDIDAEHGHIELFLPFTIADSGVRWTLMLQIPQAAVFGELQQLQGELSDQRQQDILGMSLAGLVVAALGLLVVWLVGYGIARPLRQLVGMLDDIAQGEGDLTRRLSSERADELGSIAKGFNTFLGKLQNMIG
Sequence of PctD-Tar hybrid (P07017 267-553, further chain): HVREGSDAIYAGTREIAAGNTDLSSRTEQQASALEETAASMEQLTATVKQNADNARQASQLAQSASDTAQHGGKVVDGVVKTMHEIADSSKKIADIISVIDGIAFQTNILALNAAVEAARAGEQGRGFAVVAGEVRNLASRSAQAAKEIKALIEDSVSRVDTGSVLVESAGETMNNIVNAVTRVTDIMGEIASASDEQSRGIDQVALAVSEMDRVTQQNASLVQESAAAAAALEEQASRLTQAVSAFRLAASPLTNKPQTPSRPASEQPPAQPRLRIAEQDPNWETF

Dickeya solani MK10 = test: Capillary chemotaxis assay; format: cell-based; details: 1 mM acetylcholine
Description: as §1, with “Data were corrected with the number of cells that swam into buffer containing capillaries. Data are the means and standard deviations of three biological replicates conducted in triplicate.” left out

[3] = system: Agrobacterium tumefaciens C58; test: Capillary chemotaxis assay; format: cell-based; details: 1 mM acetylcholine
Description: as §1, with “Data were corrected with the number of cells that swam into buffer containing capillaries. Data are the means and standard deviations of three biological replicates conducted in triplicate.” left out

[4] = system: E. coli strain UU1250 expressing PctD-Tar; format: cell-based
Description: The microfluidic assay was performed as previously described, using a chip with 24 parallel microchannels ([105]). […]. Cells were harvested by centrifugation and washed twice with tethering buffer. Chemoeffectors were dissolved in tethering buffer at a concentration of 50 mM, and the pH was adjusted to 7.0. The chemical source microchannels were filled with 4% (wt/vol) agarose gel to create a semipermeable barrier. E. coli cells were added to the reservoir well and allowed to spread for 30 min into the channels. Compounds were added to the source well and allowed to form a concentration gradient. Cell fluorescence was recorded with a Ti-E inverted microscope system (Nikon Instruments Europe BV, Amsterdam, Netherlands) using a 20×lens objective. Data were analyzed using ImageJ (Wayne Rasband, NIH, USA).

BmrR = biological target: BmrR; set-up: method as in PMID 21690368; details: cited from earlier work
P. aeruginosa = details: cited from earlier work
TlpQ = details: cited from earlier work

With `C[N+](C)(C)C[C@H](O)CC(=O)[O-]` [L-carnitine] the “growth as carbon source” value (P. aeruginosa PAO1 [1]) was “significant growth”, the KD (PctD(PA4633)-LBD) was “No response; also recorded: could not be visualized; also recorded: No binding” and the ΔH (PctD(PA4633)-LBD) was “No binding”. The chemotaxis response (P. atrosepticum SCRI1043) was “low but reproducible chemotaxis”, the “chemoattraction” value (P. aeruginosa PAO1 [2]) was “chemoattraction” and the “concentration of maximal chemotaxis response” value (P. aeruginosa PAO1 [2]) was 10000 µM. For the same compound, the “response threshold of chemotaxis” value (P. aeruginosa PAO1 [2]) was 100 µM, the Kd (PacA(ECA_RS10935)-LBD) was 20 ± 2 µM and the ΔH (PacA(ECA_RS10935)-LBD) was -4.9 ± 0.4 kcal/mol. The EC50 (PctD-Tar hybrid) was 31 ± 6 µM.
For `CC(=O)OCC[N+](C)(C)C` [acetylcholine], the magnitude of chemotaxis (Dickeya solani MK10) was “about a third of that observed in P. aeruginosa”, the magnitude of chemotaxis [3] was “comparable to that in P. aeruginosa” and the ΔH (PctD(PA4633)-LBD) was -12.2 ± 1.0 kcal/mol. The chemotaxis response (P. atrosepticum SCRI1043) was “failed to respond”, the “concentration of maximal chemotaxis response” value (P. aeruginosa PAO1 [2]) was 10 µM and the “response threshold of chemotaxis” value (P. aeruginosa PAO1 [2]) was 1 µM. The maximal accumulation (P. aeruginosa PAO1 [2]) was ~300,000 bacteria per capillary, the “chemoattraction in microfluidic assay” value ([4]; 50 mM in source channel) was “much stronger chemoattraction” and the KD (PacA(ECA_RS10935)-LBD) was “fails to recognize; also recorded: absence of binding”. The ΔH (PacA(ECA_RS10935)-LBD) was “No binding”, the KD (PacA(ECA_RS10935)-LBD; listed as Acetylcholine) was “No binding” and the Kd (BmrR) was 6.6 µM.
In the case of `C[N+](C)(C)CC(=O)O` [betaine], the Kd (PctD(PA4633)-LBD) is reported as 990 ± 59 µM, the KD (PctD(PA4633)-LBD) is reported as “low affinity” and the ΔH (PctD(PA4633)-LBD) is reported as -2.4 ± 4.1 kcal/mol. The chemotaxis response (P. atrosepticum SCRI1043) was “low but reproducible chemotaxis”, the “chemoattraction” value (P. aeruginosa PAO1 [2]) was “comparable to that of L-carnitine” and the Kd (PacA(ECA_RS10935)-LBD) was 7.5 ± 0.1 µM. The ΔH (PacA(ECA_RS10935)-LBD) was -16.1 ± 0.1 kcal/mol and the EC50 (PctD-Tar hybrid) was 150 ± 25 µM.
With `C[N+](C)(C)CCO` [choline] the Kd (PctD(PA4633)-LBD) was 2.6 ± 0.1 µM, the ΔH (PctD(PA4633)-LBD) was -20.3 ± 0.3 kcal/mol and the chemotaxis response (P. atrosepticum SCRI1043) was “low but reproducible chemotaxis”. For the same compound, the “concentration of maximal chemotaxis response” value (P. aeruginosa PAO1 [2]) was 10 µM, the “response threshold of chemotaxis” value (P. aeruginosa PAO1 [2]) was 0.1 µM and the maximal accumulation (P. aeruginosa PAO1 [2]) was ~300,000 bacteria per capillary. For the same compound, the “chemoattraction in microfluidic assay” value [4] was “much stronger chemoattraction”, the Kd (PacA(ECA_RS10935)-LBD) was 113 ± 16.4 µM and the ΔH (PacA(ECA_RS10935)-LBD) was -2.1 ± 0.2 kcal/mol. It also gave an EC50 (PctD-Tar hybrid) of 0.04 ± 0.01 µM.
For `NCCc1c[nH]cn1` [histamine], the “lowest concentration giving attraction” value (P. aeruginosa) is given as 500 nM and the Kd (TlpQ) is given as 0.64 µM and 1.2 µM.
